Measurements taken from article PMC5218480 (PLoS ONE, 2017).

System: MV-4-11 cells
Experiment: Gene expression microarray analysis (Affymetrix PrimeView) and GSEA
Assay type: cell-based, human
Design: RFU PODN (11730768_x_at) / Fold change /veh PODN (11730768_x_at) / RFU LINC00158 (11744669_a_at) / Fold change /veh LINC00158 (11744669_a_at) / RFU DUSP10 (11751237_a_at) / Fold change /veh DUSP10 (11751237_a_at) / RFU ID3 (11757404_x_at) / Fold change /veh ID3 (11757404_x_at) / RFU PLEKHG5 (11737974_s_at) / Fold change /veh PLEKHG5 (11737974_s_at) / RFU LRRC4B (11730491_at) / Fold change /veh LRRC4B (11730491_at) / RFU GIMAP4 (11747438_a_at) / Fold change /veh GIMAP4 (11747438_a_at) / RFU KRT8 (11758183_x_at) / Fold change /veh KRT8 (11758183_x_at) / RFU CNN1 (11734310_a_at) / Fold change /veh CNN1 (11734310_a_at) / RFU VPS37D (11726825_at) / Fold change /veh VPS37D (11726825_at) / RFU C10orf10 (11716522_x_at) / Fold change /veh C10orf10 (11716522_x_at) / RFU KIR2DL2 /// KIR2DL4 /// KIR2DL5A /// KIR2DL5B /// KIR2DS1 /// KIR2DS2 /// KIR2DS3 /// KIR2DS4 /// KIR3DL3 /// KIR3DL3 /// KIR3DS1 (11738374_at) / Fold change /veh KIR2DL2 /// KIR2DL4 /// KIR2DL5A /// KIR2DL5B /// KIR2DS1 /// KIR2DS2 /// KIR2DS3 /// KIR2DS4 /// KIR3DL3 /// KIR3DL3 /// KIR3DS1 (11738374_at) / RFU C1QL1 (11718748_at) / Fold change /veh C1QL1 (11718748_at) / RFU TMPRSS4 (11747572_a_at) / Fold change /veh TMPRSS4 (11747572_a_at) / RFU HAMP (11756126_x_at) / Fold change /veh HAMP (11756126_x_at) / RFU RNFT2 (11725882_a_at) / Fold change /veh RNFT2 (11725882_a_at) / RFU NR4A2 (11747474_a_at) / Fold change /veh NR4A2 (11747474_a_at) / RFU ABCC12 (11746883_a_at) / Fold change /veh ABCC12 (11746883_a_at) / RFU TMEM136 (11760407_x_at) / Fold change /veh TMEM136 (11760407_x_at) / RFU CLDN22 /// WWC2 (11732394_at) / Fold change /veh CLDN22 /// WWC2 (11732394_at) / RFU HLA-DPB1 (11760878_x_at) / Fold change /veh HLA-DPB1 (11760878_x_at) / RFU SPINT1 (11716480_a_at) / Fold change /veh SPINT1 (11716480_a_at) / RFU GAP43 (11754022_s_at) / Fold change /veh GAP43 (11754022_s_at) / RFU A4GNT (11735810_at) / Fold change /veh A4GNT (11735810_at) / RFU PRB3 (11715151_x_at) / Fold change /veh PRB3 (11715151_x_at) / RFU TUBB4B (11761932_at) / Fold change /veh TUBB4B (11761932_at) / RFU CAPN14 (11732068_a_at) / Fold change /veh CAPN14 (11732068_a_at) / RFU TMCC2 (11721928_a_at) / Fold change /veh TMCC2 (11721928_a_at) / RFU IRGQ (11745062_a_at) / Fold change /veh IRGQ (11745062_a_at) / RFU FAM174B (11720279_a_at) / Fold change /veh FAM174B (11720279_a_at) / RFU TMPRSS4 (11748680_a_at) / Fold change /veh TMPRSS4 (11748680_a_at) / RFU FAM212B (11763350_a_at) / Fold change /veh FAM212B (11763350_a_at) / RFU PLEKHG5 (11743358_a_at) / Fold change /veh PLEKHG5 (11743358_a_at) / RFU ZSCAN30 (11745921_a_at) / Fold change /veh ZSCAN30 (11745921_a_at) / RFU CMKLR1 (11741424_a_at) / Fold change /veh CMKLR1 (11741424_a_at) / RFU LOC101060620 /// MAPK8IP1 (11723275_at) / Fold change /veh LOC101060620 /// MAPK8IP1 (11723275_at) / RFU SPTSSB (11747773_x_at) / Fold change /veh SPTSSB (11747773_x_at) / RFU PRSS12 (11739890_at) / Fold change /veh PRSS12 (11739890_at) / RFU BIN1 (11741810_x_at) / Fold change /veh BIN1 (11741810_x_at) / RFU WNT11 (11732464_a_at) / Fold change /veh WNT11 (11732464_a_at) / RFU C10orf10 (11716521_a_at) / Fold change /veh C10orf10 (11716521_a_at) / RFU C5orf56 (11738089_at) / Fold change /veh C5orf56 (11738089_at) / RFU CYB561 (11721691_x_at) / Fold change /veh CYB561 (11721691_x_at) / RFU ANKRD19P (11752326_a_at) / Fold change /veh ANKRD19P (11752326_a_at) / RFU OR2T12 /// OR2T33 /// OR2T8 (11738714_s_at) / Fold change /veh OR2T12 /// OR2T33 /// OR2T8 (11738714_s_at) / RFU VCAN (11748164_a_at) / Fold change /veh VCAN (11748164_a_at) / RFU JSRP1 (11732532_at) / Fold change /veh JSRP1 (11732532_at) / RFU KRTAP10-11 (11738290_x_at) / Fold change /veh KRTAP10-11 (11738290_x_at) / RFU MYO3A (11730013_a_at) / Fold change /veh MYO3A (11730013_a_at) / RFU EBF3 (11725865_a_at) / Fold change /veh EBF3 (11725865_a_at) / RFU CAMK2N1 (11719241_x_at) / Fold change /veh CAMK2N1 (11719241_x_at) / RFU C5orf56 (11738088_a_at) / Fold change /veh C5orf56 (11738088_a_at) / RFU OLFML3 (11715873_a_at) / Fold change /veh OLFML3 (11715873_a_at) / RFU LOC100653217 /// NTM (11731650_a_at) / Fold change /veh LOC100653217 /// NTM (11731650_a_at) / RFU MAPK11 (11762145_a_at) / Fold change /veh MAPK11 (11762145_a_at) / RFU FIZ1 (11724087_x_at) / Fold change /veh FIZ1 (11724087_x_at) / RFU OASL (11726364_x_at) / Fold change /veh OASL (11726364_x_at) / RFU SOX15 (11748057_x_at) / Fold change /veh SOX15 (11748057_x_at) / RFU CD79A (11719716_a_at) / Fold change /veh CD79A (11719716_a_at) / RFU HIST1H1D (11736915_at) / Fold change /veh HIST1H1D (11736915_at) / RFU CASKIN2 (11723855_a_at) / Fold change /veh CASKIN2 (11723855_a_at) / RFU LOC730098 (11760151_x_at) / Fold change /veh LOC730098 (11760151_x_at) / RFU OR4N2 (11742367_at) / Fold change /veh OR4N2 (11742367_at) / RFU PRRT2 (11749266_a_at) / Fold change /veh PRRT2 (11749266_a_at) / RFU SNX32 (11753110_a_at) / Fold change /veh SNX32 (11753110_a_at) / RFU CDHR5 (11726645_a_at) / Fold change /veh CDHR5 (11726645_a_at) / RFU RCAN1 (11760418_a_at) / Fold change /veh RCAN1 (11760418_a_at) / RFU FAM167A (11723789_a_at) / Fold change /veh FAM167A (11723789_a_at) / RFU FAM26E (11764081_at) / Fold change /veh FAM26E (11764081_at) / RFU ISYNA1 (11749810_s_at) / Fold change /veh ISYNA1 (11749810_s_at) / RFU ACY1 (11761880_at) / Fold change /veh ACY1 (11761880_at) / RFU 11764098_at / Fold change /veh 11764098_at / RFU SAMD14 (11745864_x_at) / Fold change /veh SAMD14 (11745864_x_at) / RFU NPB (11741838_a_at) / Fold change /veh NPB (11741838_a_at) / RFU TMPRSS6 (11731388_a_at) / Fold change /veh TMPRSS6 (11731388_a_at) / RFU KRTAP10-2 (11738614_at) / Fold change /veh KRTAP10-2 (11738614_at) / RFU ARHGAP8 /// PRR5-ARHGAP8 (11727945_x_at) / Fold change /veh ARHGAP8 /// PRR5-ARHGAP8 (11727945_x_at) / RFU KRTAP5-7 /// NADSYN1 (11734609_at) / Fold change /veh KRTAP5-7 /// NADSYN1 (11734609_at) / RFU RASL12 (11751679_a_at) / Fold change /veh RASL12 (11751679_a_at) / RFU CDKN2B (11736163_a_at) / Fold change /veh CDKN2B (11736163_a_at) / RFU PRF1 (11729649_at) / Fold change /veh PRF1 (11729649_at) / RFU, ZNF638 /// ZNF638-IT1 / Fold change vs veh, ZNF638 /// ZNF638-IT1 / RFU, PANK3 / Fold change vs veh, PANK3 / RFU, SH3YL1 / Fold change vs veh, SH3YL1 / RFU, ZEB2 / Fold change vs veh, ZEB2 / RFU, NRIP1 / Fold change vs veh, NRIP1 / RFU, PTTG1IP / Fold change vs veh, PTTG1IP / RFU, CAPN2 / Fold change vs veh, CAPN2 / RFU, MED14 / Fold change vs veh, MED14 / RFU, SNORA58 / Fold change vs veh, SNORA58 / RFU, C1orf63 / Fold change vs veh, C1orf63 / RFU, LRRFIP1 / Fold change vs veh, LRRFIP1 / RFU, NDUFAF7 / Fold change vs veh, NDUFAF7 / RFU, SLC12A2 / Fold change vs veh, SLC12A2 / RFU, IBTK / Fold change vs veh, IBTK / RFU, ESF1 / Fold change vs veh, ESF1 / Fold change vs veh, TMEM50B / RFU, TAOK1 / Fold change vs veh, TAOK1 / RFU, ACBD3 / Fold change vs veh, ACBD3 / RFU, TMA16 / Fold change vs veh, TMA16 / RFU, RWDD3 / Fold change vs veh, RWDD3 / RFU, BCAT1 / Fold change vs veh, BCAT1 / RFU, EDEM3 / Fold change vs veh, EDEM3 / RFU, TMEM33 / Fold change vs veh, TMEM33 / RFU, WDR75 / Fold change vs veh, WDR75 / RFU, AHCTF1 / Fold change vs veh, AHCTF1 / RFU, TFRC / Fold change vs veh, TFRC / RFU, ZDHHC17 / Fold change vs veh, ZDHHC17 / RFU, NOM1 / Fold change vs veh, NOM1 / RFU, ARL8B / Fold change vs veh, ARL8B / RFU, ZBTB11 / Fold change vs veh, ZBTB11 / RFU, TAMM41 / Fold change vs veh, TAMM41 / RFU, KIAA1704 /// LOC100996395 / Fold change vs veh, KIAA1704 /// LOC100996395 / RFU, ING1 / Fold change vs veh, ING1 / RFU, TRMT61B / Fold change vs veh, TRMT61B / RFU, FUBP3 / Fold change vs veh, FUBP3 / RFU, TP53 / Fold change vs veh, TP53 / RFU, TNKS2 / Fold change vs veh, TNKS2 / RFU, ZFP14 / Fold change vs veh, ZFP14 / RFU, ACTR2 / Fold change vs veh, ACTR2 / RFU, PPP3R1 / Fold change vs veh, PPP3R1 / RFU, PIK3R1 / Fold change vs veh, PIK3R1 / RFU, HNRNPA1 / Fold change vs veh, HNRNPA1 / RFU, RNF170 / Fold change vs veh, RNF170 / RFU, ZNF28 / Fold change vs veh, ZNF28 / RFU, RNGTT / Fold change vs veh, RNGTT / RFU, OGT / Fold change vs veh, OGT / RFU, BRD1 / Fold change vs veh, BRD1 / RFU, MARS / Fold change vs veh, MARS / RFU, ZNF655 / Fold change vs veh, ZNF655 / RFU, FAHD1 / Fold change vs veh, FAHD1 / RFU, BDP1 / Fold change vs veh, BDP1 / RFU, LRRCC1 / Fold change vs veh, LRRCC1 / RFU, ARID1A / Fold change vs veh, ARID1A / RFU, ZNF146 / Fold change vs veh, ZNF146 / RFU, ZNF330 / Fold change vs veh, ZNF330 / RFU, GPN3 / Fold change vs veh, GPN3 / RFU, C9orf123 / Fold change vs veh, C9orf123 / RFU, N4BP2L2 / Fold change vs veh, N4BP2L2 / RFU, ARFIP1 / Fold change vs veh, ARFIP1 / RFU, FAM179B / Fold change vs veh, FAM179B / RFU, BCL10 / Fold change vs veh, BCL10 / RFU, UHRF1BP1L / Fold change vs veh, UHRF1BP1L / RFU, BET1 / Fold change vs veh, BET1 / RFU, CNOT2 / Fold change vs veh, CNOT2 / RFU, ZNF268 / Fold change vs veh, ZNF268 / Fold change vs veh, ZNF507 / RFU, DGCR2 / Fold change vs veh, DGCR2 / RFU, WDSUB1 / Fold change vs veh, WDSUB1 / Fold change vs veh, HSP90B1 /// MIR3652 / RFU, ADSS / Fold change vs veh, ADSS / RFU, GK / Fold change vs veh, GK / RFU, ZNF148 / Fold change vs veh, ZNF148 / RFU, TAF9 / Fold change vs veh, TAF9 / RFU, SLC1A5 / Fold change vs veh, SLC1A5 / RFU, SLMO2 / Fold change vs veh, SLMO2 / RFU, ABCC4 / Fold change vs veh, ABCC4 / RFU, LOC101060439 /// RAP1B / Fold change vs veh, LOC101060439 /// RAP1B / RFU, RFX7 / Fold change vs veh, RFX7 / RFU, GTPBP10 / Fold change vs veh, GTPBP10 / RFU, CNEP1R1 / Fold change vs veh, CNEP1R1 / RFU, BIVM-ERCC5 /// ERCC5 / Fold change vs veh, BIVM-ERCC5 /// ERCC5 / RFU, ILF3 / Fold change vs veh, ILF3 / RFU 11762660_at / Fold change /veh 11762660_at / RFU VCAN (11757783_s_at) / Fold change /veh VCAN (11757783_s_at) / RFU DDX43 (11728927_at) / Fold change /veh DDX43 (11728927_at) / RFU KRT8 (11758188_x_at) / Fold change /veh KRT8 (11758188_x_at) / RFU NKD1 (11759106_at) / Fold change /veh NKD1 (11759106_at) / RFU SRD5A1 (11742802_a_at) / Fold change /veh SRD5A1 (11742802_a_at) / RFU TPSAB1 /// TPSB2 (11721975_s_at) / Fold change /veh TPSAB1 /// TPSB2 (11721975_s_at) / RFU GSTM3 (11746129_a_at) / Fold change /veh GSTM3 (11746129_a_at) / RFU IL23R (11737362_x_at) / Fold change /veh IL23R (11737362_x_at) / RFU TMEM51 (11727254_a_at) / Fold change /veh TMEM51 (11727254_a_at) / RFU PIWIL2 (11732686_x_at) / Fold change /veh PIWIL2 (11732686_x_at) / RFU ORM1 (11744905_x_at) / Fold change /veh ORM1 (11744905_x_at) / RFU CCDC152 (11743942_at) / Fold change /veh CCDC152 (11743942_at) / RFU ECM1 (11717891_a_at) / Fold change /veh ECM1 (11717891_a_at) / RFU IL23R (11748794_a_at) / Fold change /veh IL23R (11748794_a_at) / RFU TNFAIP8L3 (11732012_x_at) / Fold change /veh TNFAIP8L3 (11732012_x_at) / RFU MBOAT4 (11741988_at) / Fold change /veh MBOAT4 (11741988_at) / RFU 11764193_at / Fold change /veh 11764193_at / RFU TMEM53 (11763286_at) / Fold change /veh TMEM53 (11763286_at) / RFU MAGEB2 (11727129_at) / Fold change /veh MAGEB2 (11727129_at) / RFU TMEM200A (11744735_a_at) / Fold change /veh TMEM200A (11744735_a_at) / RFU CCDC152 (11751479_a_at) / Fold change /veh CCDC152 (11751479_a_at) / RFU FAM211A (11726209_a_at) / Fold change /veh FAM211A (11726209_a_at) / RFU RGS16 (11746705_a_at) / Fold change /veh RGS16 (11746705_a_at) / RFU VCAN (11755009_s_at) / Fold change /veh VCAN (11755009_s_at) / RFU RHOB (11743442_s_at) / Fold change /veh RHOB (11743442_s_at) / RFU RGS16 (11720943_a_at) / Fold change /veh RGS16 (11720943_a_at) / RFU RGS16 (11720944_at) / Fold change /veh RGS16 (11720944_at) / RFU, VPS4B / Fold change vs veh, VPS4B / RFU, CREB1 / Fold change vs veh, CREB1 / RFU, DNAJC13 / Fold change vs veh, DNAJC13 / RFU, GNAQ / Fold change vs veh, GNAQ / RFU, CDK5R1 / Fold change vs veh, CDK5R1 / RFU, ZRANB3 / Fold change vs veh, ZRANB3 / RFU, CUL4A / Fold change vs veh, CUL4A / RFU, CCNY / Fold change vs veh, CCNY / RFU, UFL1 / Fold change vs veh, UFL1 / RFU, COG3 / Fold change vs veh, COG3 / RFU, DIAPH2 / Fold change vs veh, DIAPH2 / RFU, SKA2 / Fold change vs veh, SKA2 / RFU, AFF3 / Fold change vs veh, AFF3 / RFU, LMF1 / Fold change vs veh, LMF1 / RFU, IPO11 / Fold change vs veh, IPO11 / RFU, DFFB / Fold change vs veh, DFFB / RFU, FOXP1 / Fold change vs veh, FOXP1 / RFU, CARD8 / Fold change vs veh, CARD8 / RFU, STRN3 / Fold change vs veh, STRN3 / RFU, ADK / Fold change vs veh, ADK / RFU, RASSF2 / Fold change vs veh, RASSF2 / RFU, WIPF1 / Fold change vs veh, WIPF1 / RFU, LARP1B / Fold change vs veh, LARP1B / RFU, RASA1 / Fold change vs veh, RASA1 / RFU, RB1 / Fold change vs veh, RB1 / RFU, PPFIA1 / Fold change vs veh, PPFIA1 / RFU, MAT2A / Fold change vs veh, MAT2A / RFU, CCT5 / Fold change vs veh, CCT5 / RFU, WDR92 / Fold change vs veh, WDR92 / RFU, CUX1 / Fold change vs veh, CUX1 / RFU, TTC7A / Fold change vs veh, TTC7A / RFU, TMEM135 / Fold change vs veh, TMEM135 / RFU, DEPTOR / Fold change vs veh, DEPTOR / RFU, CPM / Fold change vs veh, CPM / RFU, DNAJB6 / Fold change vs veh, DNAJB6 / RFU, CACNA2D3 / Fold change vs veh, CACNA2D3 / RFU, DTX4 / Fold change vs veh, DTX4 / RFU, TFCP2 / Fold change vs veh, TFCP2 / RFU, GMCL1 /// GMCL1P1 / Fold change vs veh, GMCL1 /// GMCL1P1 / RFU, AEBP2 / Fold change vs veh, AEBP2 / RFU, SNHG1 /// SNORD22 /// SNORD25 /// SNORD26 /// SNORD27 /// SNORD28 /// SNORD29 /// SNORD31 / Fold change vs veh, SNHG1 /// SNORD22 /// SNORD25 /// SNORD26 /// SNORD27 /// SNORD28 /// SNORD29 /// SNORD31 / Fold change (Aza/veh), C12orf56 (ProbeSet 11735607_a_at) / Fold change (ACY-1035/veh), C12orf56 (ProbeSet 11735607_a_at) / Fold change (Aza/veh), FGFR1OP (ProbeSet 11751329_s_at) / Fold change (ACY-1035/veh), FGFR1OP (ProbeSet 11751329_s_at) / Fold change (Aza/veh), VPS36 (ProbeSet 11739960_a_at) / Fold change (ACY-1035/veh), VPS36 (ProbeSet 11739960_a_at) / RFU SYPL1 (11715823_x_at) / Fold change /veh SYPL1 (11715823_x_at) / RFU IGFBP7 (11715501_s_at) / Fold change /veh IGFBP7 (11715501_s_at) / RFU REEP3 (11722064_at) / Fold change /veh REEP3 (11722064_at) / RFU IGLL1 (11728026_x_at) / Fold change /veh IGLL1 (11728026_x_at): dose or concentration left out as unconfirmed
Details: ProbeSet 11748335_a_at; LIST B

For `Nc1ncn([C@@H]2O[C@H](CO)[C@@H](O)[C@H]2O)c(=O)n1` [azacitidine], the “Fold change vs veh, SLMO2” value was 0.87.
